The values below come from ChEMBL document CHEMBL4190345, “Synthesis and biological evaluation of new substituted thioglycolurils, their analogues and derivatives” (Eur J Med Chem, 2017).

Assay [1] concerns RD. The experiment in a line: Cytotoxicity in human RD cells assessed as inhibition of cell growth incubated for 72 hrs by MTT assay. Format: functional, cell-based. A general note: Formazan colour is commonly taken as a measure of viable cells.
The test system of assay [2] is A549. The experiment in a line: Cytotoxicity in human A549 cells assessed as inhibition of cell growth incubated for 72 hrs by MTT assay. To be noted: A549, 72 h. The assay is classed as functional, cell-based.
Assay [3] can be described thus: Cytotoxicity in human […] cells assessed as inhibition of cell growth incubated for 72 hrs by MTT assay. Format: functional, cell-based.
Assay [4] relates to MCF7. The experiment in a line: Cytotoxicity in human MCF7 cells assessed as inhibition of cell growth incubated for 72 hrs by MTT assay. Format: functional, cell-based. To be noted: MCF7, 72 h.
Assay [5] has as its system HEK293. The experiment in a line: Cytotoxicity in human HEK293 cells assessed as inhibition of cell growth incubated for 72 hrs by MTT assay. Format: cell-based.
For assay [6], the system named is Venturia inaequalis. Kind of assay: Fungicidal activity against Venturia inaequalis grown under potato-saccharose agar assessed as inhibition of mycelial radial growth at 30 mg/l incubated for 72 hrs. Format: functional. To be noted: read-out: GI.
Assay [7] deals with Rhizoctonia solani. Kind of assay: Fungicidal activity against Rhizoctonia solani grown under potato-saccharose agar assessed as inhibition of mycelial radial growth at 30 mg/l incubated for 72 hrs. Format: functional. The conditions noted are these: read-out: GI.
For assay [8], the system named is Fusarium oxysporum. Kind of assay: Fungicidal activity against Fusarium oxysporum grown under potato-saccharose agar assessed as inhibition of mycelial radial growth at 30 mg/l incubated for 72 hrs. Format: functional. To be noted: read-out: GI.
For assay [9], the system named is Fusarium verticillioides. Kind of assay: Fungicidal activity against Fusarium moniliforme grown under potato-saccharose agar assessed as inhibition of mycelial radial growth at 30 mg/l incubated for 72 hrs. Format: functional. To be noted: read-out: GI.
Assay [10] has as its system Bipolaris sorokiniana. Kind of assay: Fungicidal activity against Bipolaris sorokiniana grown under potato-saccharose agar assessed as inhibition of mycelial radial growth at 30 mg/l incubated for 72 hrs. Format: functional. To be noted: read-out: GI.
Assay [11] has as its system Sclerotinia sclerotiorum. The experiment in a line: Fungicidal activity against Sclerotinia sclerotiorum grown under potato-saccharose agar assessed as inhibition of mycelial radial growth at 30 mg/l incubated for 72 hrs. The conditions noted are these: read-out: GI. The assay is classed as functional.
The test system of assay [12] is Jurkat. The experiment in a line: Induction of apoptosis in human Jurkat cells assessed as viable cells level at 5 uM incubated for 24 hrs by annexin V and Alexa Fluor 488 dye staining based flow cytometry (reference value: 92.408%). The assay is classed as functional. (In flow cytometry, cells or beads pass a laser one at a time.)
Assay [13] concerns Jurkat. Kind of assay: Induction of apoptosis in human Jurkat cells assessed as apoptotic cells level at 5 uM incubated for 24 hrs by annexin V and Alexa Fluor 488 dye staining based flow cytometry (reference value: 4.928%). The assay is classed as functional.
Assay [14] has as its system Jurkat. Kind of assay: Induction of apoptosis in human Jurkat cells assessed as necrotic cells level at 5 uM incubated for 24 hrs by annexin V and Alexa Fluor 488 dye staining based flow cytometry (reference value: 2.616%). The assay is classed as functional.
Assay [15] concerns Jurkat. Kind of assay: Induction of apoptosis in human Jurkat cells assessed as damaged cells level at 5 uM incubated for 24 hrs by annexin V and Alexa Fluor 488 dye staining based flow cytometry (reference value: 0.048%). The assay is classed as functional.
Assay [16] relates to Jurkat. The experiment in a line: Induction of apoptosis in human Jurkat cells assessed as damaged cells level at 5 uM incubated for 6 hrs by annexin V and Alexa Fluor 488 dye staining based flow cytometry (reference value: 0.07%). Format: functional.
The test system of assay [17] is Jurkat. Kind of assay: Induction of apoptosis in human Jurkat cells assessed as necrotic cells level at 5 uM incubated for 24 hrs by annexin V and Alexa Fluor 488 dye staining based flow cytometry (reference value: 2.04%). The assay is classed as functional.
Assay [18] has as its system Jurkat. The experiment in a line: Induction of apoptosis in human Jurkat cells assessed as viable cells level at 5 uM incubated for 24 hrs by annexin V and Alexa Fluor 488 dye staining based flow cytometry (reference value: 95.27%). Format: functional.
In assay [19] the test system is Jurkat. The experiment in a line: Induction of apoptosis in human Jurkat cells assessed as apoptotic cells level at 5 uM incubated for 24 hrs by annexin V and Alexa Fluor 488 dye staining based flow cytometry (reference value: 2.62%). The assay is classed as functional.
[20] abbreviates: Homo sapiens, HEK293, 72 h, read-out: IC50.

What is called IC50 is the midpoint of a concentration-inhibition curve. As for `CCN1C(=O)N(CC)C2C1NC(=S)N2/N=C/C=C/c1ccccc1` (stereo not drawn), the IC50 was found to be 2.25 µM in assay [1]; 6.53 µM in assay [2]; 4.38 µM in assay [3]; 36.1 µM in assay [4]; 42.1 µM in assay [5] (setting [20]). The inhibition of growth at 30 µg/mL in assay [6] was 12%; in assay [7], 42%; in assay [8], 36%; in assay [9] it was 41%; in assay [10] it was 19%; in assay [11], 3%.

For the compound `CC[C@@]1(O)C(=O)OCc2c1cc1n(c2=O)Cc2cc3ccccc3nc2-1` [CAMPTOTHECIN], the IC50 in [1] turned out to be 4.49 µM; in [2], 8.87 µM; in assay [3], 12.3 µM; in assay [4], 13.6 µM; in assay [5] (setting [20]) it was 54.7 µM. The Activity came to 37.372% in assay [12], 0.132% in assay [15], 0.12% in assay [16] and 3.53% in assay [17]. For the same compound, the Apoptotic cells is 36.412% in [13] and 32.64% in [19]. For the same compound, the Necrotic cells in assay [14] amounted to 26.084%. In addition, the Viable cells in [18] was determined as 63.71%.

Take `CCN1C(=O)N(c2ccccc2)C2NC(=S)N(/N=C/C=C/c3ccccc3OC)C21` (stereo not drawn): the IC50 is 45.9 µM in assay [1]; greater than 100 µM in [2]; 2.12 µM in assay [3]; 79.1 µM in assay [4]; 57.5 µM in [5] (setting [20]). Further, the inhibition of growth at 30 µg/mL came to 0% in [6]; 17% in assay [7]; 1% in [8]; 19% in assay [9]; 0% in assay [10]; 12% in assay [11].

For the compound `CCN1C(=O)N(CC)C2C1N=C(SC)N2/N=C/C=C/c1ccccc1` (stereo not drawn), the concentration for half-maximal inhibition (IC50) in assay [1] turned out to be 24 µM; in [2], 21.4 µM; in [3], 5.47 µM; in assay [4], 46.6 µM; in assay [5] (setting [20]) it was 151 µM. Moreover, the inhibition of growth at 30 µg/mL is 13% in assay [6]; 60% in assay [7]; 38% in assay [8]; 37% in assay [9]; 49% in assay [10]; 11% in assay [11].

In the case of `CN1C(=O)N(C)C2C1NC(=S)N2/N=C/C=C/c1ccccc1[N+](=O)[O-]` (stereo not drawn), the IC50 was 32.4 µM in assay [1]; 2.72 µM in [2]; 3.76 µM in [3]; 1.76 µM in assay [4]; “Not Active” in assay [5] (hek293). Also, the Activity in [12] was found to be 56.128%; in [15], 0.088%; in assay [16], 0.06%; in assay [17] it was 2.16%. Also, the results for the Apoptotic cells in assay [13] and in assay [19] were 34.62% and 3.18%, respectively. Further, the Necrotic cells in [14] stood at 9.164%. Further, in assay [18], the Viable cells amounted to 94.6%.

As to `CCN1C(=O)N(CC)C2C1NC(=S)N2/N=C/C=C/c1ccccc1OC` (stereo not drawn), the IC50 in [1] is 0.25 µM; in assay [2], 0.61 µM; in assay [3], 17.5 µM; in assay [4] it was greater than 100 µM; in assay [5] (setting [20]), 86.1 µM. Also, the Activity in assay [12] worked out at 50.468%; in assay [15] it was 0.076%; in assay [16], 0.1%; in [17] it was 2.82%. The Apoptotic cells is given as 36.66% in [13] and 3.02% in [19]. For the same compound, in assay [14], the Necrotic cells is on record as 12.796%. In assay [18], the Viable cells is 94.06%. In addition, the inhibition of growth at 30 µg/mL in [6] was 29%; in assay [7], 52%; in [8] it was 21%; in assay [9], 37%; in [10], 38%; in assay [11], 10%.

Regarding `COc1ccccc1/C=C/C=N/N1C(=S)NC2C1N(C)C(=O)N2c1ccccc1` (stereo not drawn), the IC50 is 0.02 µM in assay [1]; greater than 100 µM in assay [2]; 0.012 µM in [3]; 0.26 µM in assay [4]; 0.23 µM in assay [5] (setting [20]). Also, the Activity in assay [12] is 56.076%; in assay [15] it was 0.136%; in assay [16], 0.14%; in [17], 2.39%. Also, the Apoptotic cells in assay [13] is given as 26.98%; in assay [19], 3.1%. Moreover, the Necrotic cells in [14] turned out to be 16.808%. In [18], the Viable cells is listed as 94.37%.

Take `CCSC1=NC2C(N(CC)C(=O)N2CC)N1/N=C/C=C/c1ccccc1[N+](=O)[O-]` (stereo not drawn): the IC50 is 2.45 µM in assay [1]; greater than 100 µM in assay [2]; 5.07 µM in assay [3]; 30.7 µM in [4]; 221 µM in assay [5] (setting [20]). Besides, the inhibition of growth at 30 µg/mL in assay [6] amounted to 10%; in [7], 44%; in assay [8] it was 12%; in assay [9], 22%; in [10], 39%; in assay [11], 12%.

In the case of `CN1C(=O)N(c2ccccc2)C2NC(=S)N(/N=C/C=C/c3ccccc3)C21` (stereo not drawn), the IC50 in [1] was 1.69 µM; in [2], greater than 100 µM; in [3] it was 12.1 µM; in [4], greater than 100 µM; in assay [5] (setting [20]), 167 µM.

For `COc1cccc2c1C(=O)c1c(O)c3c(c(O)c1C2=O)C[C@@](O)(C(C)=O)C[C@@H]3O[C@H]1C[C@H](N)[C@H](O)[C@H](C)O1` [DAUNORUBICIN], the IC50 is 2.45 µM in assay [1]; 0.51 µM in assay [2]; 0.21 µM in assay [3]; 1.44 µM in [4]; 11.2 µM in assay [5] (setting [20]).

`CCN1C(=O)N(CC)C2C1N=C(SC)N2/N=C/C=C/c1ccccc1OC` (stereo not drawn): the IC50 in [1] worked out at 7.97 µM; in assay [2], 4.79 µM; in [3], 1.09 µM; in [4], 34.6 µM; in assay [5] (setting [20]), 145 µM. The inhibition of growth at 30 µg/mL in assay [6] was 20%; in [7] it was 65%; in assay [8], 51%; in assay [9] it was 42%; in assay [10], 47%; in [11], 23%.
